We go through 72 compounds from patent US10071976B2, “Small molecule fatty acid synthase inhibitors” (Sanford Burnham Prebys Medical Discovery Institute, priority 2014, dated 2018).

By IC50 is commonly meant the concentration at which inhibition is half-maximal.

Chain of FASN-TE (P49327 2207-2511 limits assumed): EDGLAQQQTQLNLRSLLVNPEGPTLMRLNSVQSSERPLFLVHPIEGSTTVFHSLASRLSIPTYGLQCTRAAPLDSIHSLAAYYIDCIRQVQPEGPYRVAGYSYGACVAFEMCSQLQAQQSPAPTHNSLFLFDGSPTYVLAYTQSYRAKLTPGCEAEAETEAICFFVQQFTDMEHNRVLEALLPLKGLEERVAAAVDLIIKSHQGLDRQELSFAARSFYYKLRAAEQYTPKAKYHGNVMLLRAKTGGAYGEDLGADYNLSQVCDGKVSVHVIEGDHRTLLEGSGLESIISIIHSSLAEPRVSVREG

This test concerns the target FASN-TE (Homo sapiens, UniProt P49327). In words: In-vitro biochemical assay measuring FAS-TE inhibition (OMFH substrate, fluorescence). The method, then:
Min wells: Substrate+No enzyme+DMSO, Max wells: Substrate+Enzyme+DMSO, Sample wells: Substrate+Enzyme+Test compounds, Reference compound: Orlistat (make a fresh 10 mM stock in DMSO each time). 384-well black, low-volume plate (Greiner #784076)
Assay Protocol: • 1) ECHO transfer 160 nL of 125× Compound (or DMSO for control wells) per well. • 2) For Max and Sample wells: Add 10 μL of Enzyme (2×; 1.8 μM) prepared in RXN Buffer. For Min wells: Add 10 μL of RXN Buffer (No Enzyme). • 3) For all wells: Add 10 μL of Substrate (2×; 20 μM) prepared in diH2O+10% DMSO. • 4) Centrifuge plate for 1 minute at 1,000 rpm. • 5) Measure fluorescence every 5 minutes for 1-1.5 hours using the BMG POLARstar (ex 485 nm/em 520 nm; Gain=1015; 25 flashes). • 6) All volumes can be adjusted but the final DMSO concentration should be kept at about 6%.
Data Analysis: • 1) Calculate slopes and express as % Activity (Min wells=0%; Max wells=100%). • 2) Then, using Prism, calculate the IC50 values.
On to `CCC(=O)Nc1nc(-c2ccc(S(=O)(=O)N(C)C)cc2)cs1` [Compound 40], for which the IC50 turned out to be 1100 nM. As to `CCN(CC)S(=O)(=O)c1ccc(-c2csc(NC(=O)C(C)C)n2)cc1` [Compound 33], half-maximal inhibition (IC50) was put at 280 nM. Under `CCC(=O)Nc1nc(-c2ccc(S(=O)(=O)N(CC)CC)cc2)cs1` [Compound 31] stands 4250 nM; under `CCCCC(=O)Nc1nc(-c2ccc(S(=O)(=O)N3CCCCC3C)cc2)cs1` (stereo not drawn) [Compound 45], 380 nM. The same measure for `CN(C)S(=O)(=O)c1ccc(-c2csc(NC(=O)C3CCC3)n2)cc1` [Compound 42]: 1400 nM. `O=S(=O)(c1ccc(-c2csc(-c3cccnc3)n2)cc1)N1CCCC1` [Compound 69] registered an IC50 of 1510 nM. This IC50 and that of the compound before are within 1.5-fold of each other.

The compound `CC(C)(C)OC(=O)Nc1nc(-c2ccc(S(=O)(=O)N3CCOCC3)cc2)cs1` [Compound 21] returned an IC50 of 29000 nM.

`CCC(CC)C(=O)Nc1nc(-c2ccc(S(=O)(=O)N(CC)CC)cc2)cs1` [Compound 55] yielded an IC50 of 330 nM. The same measure for `CCCCCCCC(=O)Nc1nc(-c2ccc(S(=O)(=O)N3CCCCC3C)cc2)cs1` (stereo not drawn) [Compound 47]: 4300 nM; for `CCc1nc(-c2ccc(S(=O)(=O)N(CC)CC)cc2)cs1` [Compound 100]: ≥ 80000 nM. Compound `CCCCC(=O)Nc1nc(-c2ccc(S(=O)(=O)N3CCCC3)cc2)cs1` [Compound 8] returned an IC50 of 200 nM. Regarding `CCCCC(=O)Nc1nc(-c2ccc(S(=O)(=O)N(CC)CC)cc2)cs1` [Compound 32], half-maximal inhibition (IC50) required 172 nM. The IC50 values of the last two compounds are within 1.5-fold of each other. Under `CCN(CC)S(=O)(=O)c1ccc(-c2csc(NC(=O)C3CCCC3)n2)cc1` [Compound 36] stands 1200 nM; under `CCN(CC)S(=O)(=O)c1ccc(-c2csc(C(C)(C)C)n2)cc1` [Compound 102], 12600 nM; under `CC(C)C(=O)Nc1nc(-c2ccc(S(=O)(=O)N3CCCC3)cc2)cs1` [Compound 27], 277 nM. As for `CC1CCN(S(=O)(=O)c2ccc(-c3csc(NC(=O)C(C)C)n3)cc2)CC1` [Compound 24], the IC50 came to 660 nM. `O=C(Nc1nc(-c2ccc(S(=O)(=O)N3CCCC3)cc2)cs1)C1CC1` [Compound 28] showed an IC50 of 560 nM. `CCC(C)C(=O)Nc1nc(-c2ccc(S(=O)(=O)N3CCCCC3C)cc2)cs1` (stereo not drawn) [Compound 44] gave an IC50 of 290 nM. In the case of `CCN(CC)S(=O)(=O)c1ccc(-c2csc(Cc3ccc(F)cc3)n2)cc1` [Compound 111], the midpoint of inhibition, the IC50, lay at 2410 nM. `CCC(=O)Nc1nc(-c2ccc(S(=O)(=O)N3CCCC3)cc2)cs1` [Compound 26] came in with an IC50 of 650 nM. The same measure for `O=C(Nc1nc(-c2ccc(S(=O)(=O)N3CCCC3)cc2)cs1)C1CCCC1` [Compound 30]: 730 nM; for `O=S(=O)(c1ccc(-c2csc(-c3cccnc3)n2)cc1)N1CCOCC1` [Compound 81]: 2140 nM. With `CCCCCCC(=O)Nc1nc(-c2ccc(S(=O)(=O)N3CCCC3)cc2)cs1` [Compound 51], the IC50 amounted to 850 nM.

`CCN(CC)S(=O)(=O)c1ccc(-c2csc(Cc3cccc(I)c3)n2)cc1` [Compound 112] yielded an IC50 of 5010 nM. `CC(C)c1nc(-c2ccc(S(=O)(=O)N3CCOCC3)cc2)cs1` [Compound 115] displayed an IC50 of 21700 nM. Take `CCCCC(=O)Nc1nc(-c2ccc(S(=O)(=O)N3CCSCC3)cc2)cs1` [Compound 12]: the IC50 came to 710 nM. Regarding `CCC(CC)C(=O)Nc1nc(-c2ccc(S(=O)(=O)N3CCC(C)CC3)cc2)cs1` [Compound 61], the IC50 worked out at 1800 nM. `CN(C)S(=O)(=O)c1ccc(-c2csc(NC(=O)C3CC3)n2)cc1` [Compound 41]: the IC50 turned out to be 1200 nM. As for `O=C(Nc1nc(-c2ccc(S(=O)(=O)N3CCOCC3)cc2)cs1)C1CCCCC1` [Compound 20], the IC50 is > 80000 nM. For `CCN(CC)S(=O)(=O)c1ccc(-c2csc(C(C)C)n2)cc1` [Compound 101], 11400 nM corresponded to half-maximal inhibition (IC50). This lies in the double-digit micromolar range. For the compound `CC1CCN(S(=O)(=O)c2ccc(-c3csc(NC(=O)C4CC4)n3)cc2)CC1` [Compound 25], the IC50 was > 80000 nM.

In turn, `CCCC(=O)Nc1nc(-c2ccc(S(=O)(=O)N3CCCCC3C)cc2)cs1` (stereo not drawn) [Compound 46] came in with an IC50 of 580 nM. This counts as sub-micromolar.

Take `CCN(CC)S(=O)(=O)c1ccc(-c2csc(NC(=O)C3CC3)n2)cc1` [Compound 34]: the IC50 was determined as 2300 nM. `O=C(Nc1nc(-c2ccc(S(=O)(=O)N3CCCC3)cc2)cs1)C1COc2ccccc2O1` (stereo not drawn) [Compound 63] gave an IC50 of 1310 nM. This IC50 is about 1.8-fold lower than that of the compound before. As to `CCN(CC)S(=O)(=O)c1ccc(-c2csc(-c3ccc(F)cc3)n2)cc1` [Compound 103], the IC50 amounted to 1110 nM. Regarding `CCN(CC)S(=O)(=O)c1ccc(-c2csc(NC(=O)C3CC3)n2)cc1` [Compound 35], the midpoint of inhibition, the IC50, lay at 990 nM. `CCCCCCC(=O)Nc1nc(-c2ccc(S(=O)(=O)N3CCC(C)CC3)cc2)cs1` [Compound 58] displayed an IC50 of 4500 nM.

With `CC(C)C(=O)Nc1nc(-c2ccc(S(=O)(=O)N(C)C)cc2)cs1` [Compound 39], the IC50 is 580 nM. As to `O=C(Nc1nc(-c2ccc(S(=O)(=O)N3CCOCC3)cc2)cs1)c1ccco1` [Compound 11], the IC50 was 37400 nM. Under `CCC(=O)Nc1nc(-c2ccc(S(=O)(=O)N3CCOCC3)cc2)cs1` [Compound 14] stands 4500 nM; under `COc1ccccc1C(=O)Nc1nc(-c2ccc(S(=O)(=O)N3CCOCC3)cc2)cs1` [Compound 5], 11900 nM; under `O=S(=O)(c1ccc(-c2csc(Cc3ccccc3)n2)cc1)N1CCOCC1` [Compound 96], 660 nM. `CC(=O)Nc1nc(-c2ccc(S(=O)(=O)N3CCOCC3)cc2)cs1` [Compound 9] gave a half-inhibitory concentration (IC50) of 13400 nM. `O=S(=O)(c1ccc(-c2csc(N3CCCC3)n2)cc1)N1CCOCC1` [Compound 98] gave an IC50 of 1180 nM. `O=C(COc1cccc(Cl)c1)Nc1nc(-c2ccc(S(=O)(=O)N3CCOCC3)cc2)cs1` [Compound 2] showed an IC50 of 4500 nM. Compound `CC(C)CC(=O)Nc1nc(-c2ccc(S(=O)(=O)N3CCOCC3)cc2)cs1` [Compound 7] returned an IC50 of 11600 nM.

For `O=C(Nc1nc(-c2ccc(S(=O)(=O)N3CCOCC3)cc2)cs1)C1CCC1` [Compound 18], the IC50 is 3600 nM. Compound `CCCCCC(=O)Nc1nc(-c2ccc(S(=O)(=O)N3CCC(C)CC3)cc2)cs1` [Compound 57] registered an IC50 of 750 nM. Consider `O=C(COc1ccccc1)Nc1nc(-c2ccc(S(=O)(=O)N3CCOCC3)cc2)cs1` [Compound 3], for which the midpoint of inhibition, the IC50, lay at 420 nM. With `O=C(Nc1nc(-c2ccc(S(=O)(=O)N3CCOCC3)cc2)cs1)c1cccs1` [Compound 10], the midpoint of inhibition, the IC50, lay at 32900 nM. `CCN(CC)S(=O)(=O)c1ccc(-c2csc(NC(=O)C3CCCCC3)n2)cc1` [Compound 38] returned an IC50 of 2900 nM.

Regarding `CCC(C)C(=O)Nc1nc(-c2ccc(S(=O)(=O)N3CCCC3)cc2)cs1` (stereo not drawn) [Compound 48], the IC50 came out at 150 nM. Regarding `O=C(Nc1nc(-c2ccc(S(=O)(=O)N3CCOCC3)cc2)cs1)C1CCCC1` [Compound 19], the IC50 is > 80000 nM. Compound `CCCCCCC(=O)Nc1nc(-c2ccc(S(=O)(=O)N(CC)CC)cc2)cs1` [Compound 54] showed an IC50 of 1400 nM. For `O=C(Nc1nc(-c2ccc(S(=O)(=O)N3CCCC3)cc2)cs1)C1CCC1` [Compound 29], the IC50 turned out to be 400 nM. The same measure for `CN(C)S(=O)(=O)c1ccc(-c2csc(NC(=O)C3CCCC3)n2)cc1` [Compound 43]: 1600 nM. On to `CCN(CC)S(=O)(=O)c1ccc(-c2csc(Cc3cccc(F)c3)n2)cc1` [Compound 110], for which the IC50 stood at 3150 nM. Take `CCC(C)C(=O)Nc1nc(-c2ccc(S(=O)(=O)N3CCC(C)CC3)cc2)cs1` (stereo not drawn) [Compound 60]: it took 410 nM to reach half-maximal inhibition (IC50). With `CCN(CC)S(=O)(=O)c1ccc(-c2csc(-c3ccc(Br)cc3C)n2)cc1` [Compound 106], the IC50 is ≥ 80000 nM. `CCN(CC)S(=O)(=O)c1ccc(-c2csc(-c3ccc(Br)cc3)n2)cc1` [Compound 105]: the IC50 is ≥ 80000 nM.

For `CCN(CC)S(=O)(=O)c1ccc(-c2csc(Cc3ccccc3OC)n2)cc1` [Compound 113], half-maximal inhibition (IC50) was put at 6920 nM. As for `CCN(CC)S(=O)(=O)c1ccc(-c2csc(C)n2)cc1` [Compound 82], the IC50 was ≥ 80000 nM. The same measure for `CC(C)CC(=O)Nc1nc(-c2ccc(S(=O)(=O)N3CCC(C)CC3)cc2)cs1` [Compound 59]: 60400 nM; for `CN(C)S(=O)(=O)c1ccc(-c2csc(-c3cccnc3)n2)cc1` [Compound 83]: 5210 nM; for `CCC(CC)C(=O)Nc1nc(-c2ccc(S(=O)(=O)N3CCCC3)cc2)cs1` [Compound 49]: 260 nM. Turning to `CC(=O)Nc1nc(-c2ccc(S(=O)(=O)N3CCSCC3)cc2)cs1` [Compound 13], the IC50 was > 80000 nM. The compound `O=S(=O)(c1ccc(-c2csc(-c3cccnc3)n2)cc1)N1CCCCC1` [Compound 64] gave an IC50 of 2680 nM.

In turn, `CC(C)C(=O)Nc1nc(-c2ccc(S(=O)(=O)N3CCOCC3)cc2)cs1` [Compound 6] registered an IC50 of 820 nM. On to `CCN(CC)S(=O)(=O)c1ccc(-c2csc(-c3ccc(Cl)cc3)n2)cc1` [Compound 104], for which the IC50 is ≥ 80000 nM.

Consider `CCC(=O)Nc1nc(-c2ccc(S(=O)(=O)N3CCC(C)CC3)cc2)cs1` [Compound 23], for which the IC50 was > 80000 nM. Compound `CC(C)CC(=O)Nc1nc(-c2ccc(S(=O)(=O)N3CCCC3)cc2)cs1` [Compound 52] yielded an IC50 of 1600 nM. Under `CCCCCC(=O)Nc1nc(-c2ccc(S(=O)(=O)N(CC)CC)cc2)cs1` [Compound 53] stands 200 nM.
